Consider 21 compounds from ChEMBL document CHEMBL2321724 (J Med Chem, 2013).

Data set [1] concerns the target T1, Voltage-gated inwardly rectifying potassium channel KCNH2 (Homo sapiens, UniProt Q12809). Kind of data set: Displacement of [3H]astemizole from human ERG K+ channel expressed in HEK293 cells by scintillation spectrophotometric analysis.
For data set [2], the target named is T2, hERG (KCNH2) K+ channel (Homo sapiens, UniProt Q12809). Kind of data set: Displacement of [3H]astemizole from human ERG K+ channel expressed in HEK293 cells at 10 uM by scintillation spectrophotometric analysis.
T2 sequence (Q12809 whole entry): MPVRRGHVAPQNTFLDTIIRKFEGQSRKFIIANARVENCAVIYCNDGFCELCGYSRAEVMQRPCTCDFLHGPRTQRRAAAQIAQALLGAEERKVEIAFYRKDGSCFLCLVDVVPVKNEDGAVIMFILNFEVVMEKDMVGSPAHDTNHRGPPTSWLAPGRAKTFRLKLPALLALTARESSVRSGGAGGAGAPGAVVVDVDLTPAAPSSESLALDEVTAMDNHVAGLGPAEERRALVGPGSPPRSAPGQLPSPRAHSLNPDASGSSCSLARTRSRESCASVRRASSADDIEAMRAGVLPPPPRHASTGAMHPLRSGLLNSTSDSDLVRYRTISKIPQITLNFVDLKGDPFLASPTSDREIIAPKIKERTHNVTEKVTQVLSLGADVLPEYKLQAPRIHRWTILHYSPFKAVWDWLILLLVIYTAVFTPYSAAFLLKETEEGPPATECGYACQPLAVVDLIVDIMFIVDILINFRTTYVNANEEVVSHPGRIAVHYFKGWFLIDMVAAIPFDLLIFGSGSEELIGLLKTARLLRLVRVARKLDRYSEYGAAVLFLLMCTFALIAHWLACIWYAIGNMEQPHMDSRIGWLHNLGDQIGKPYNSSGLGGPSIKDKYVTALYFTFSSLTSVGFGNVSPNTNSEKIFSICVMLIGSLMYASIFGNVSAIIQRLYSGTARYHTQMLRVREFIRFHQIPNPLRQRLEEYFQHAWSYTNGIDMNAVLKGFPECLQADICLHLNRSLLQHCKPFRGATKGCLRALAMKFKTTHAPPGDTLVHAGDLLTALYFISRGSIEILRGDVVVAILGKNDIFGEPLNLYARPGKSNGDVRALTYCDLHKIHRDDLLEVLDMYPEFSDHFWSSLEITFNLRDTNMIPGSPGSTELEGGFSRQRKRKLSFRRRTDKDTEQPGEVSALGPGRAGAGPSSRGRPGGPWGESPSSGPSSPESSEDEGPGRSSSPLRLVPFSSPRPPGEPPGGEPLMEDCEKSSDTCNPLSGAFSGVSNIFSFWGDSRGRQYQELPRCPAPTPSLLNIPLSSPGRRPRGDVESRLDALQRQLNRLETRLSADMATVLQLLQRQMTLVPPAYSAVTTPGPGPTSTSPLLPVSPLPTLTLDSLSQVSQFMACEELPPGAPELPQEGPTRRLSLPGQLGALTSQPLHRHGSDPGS
Data set [3] concerns the target T1, Voltage-gated inwardly rectifying potassium channel KCNH2. Kind of data set: Inhibition of human ERG K+ channel expressed in HEK293 cells after 15 mins by patch clamp assay. The class given is cell-based. For orientation: In patch-clamp work, channel activity is measured electrically.
Data set [4] concerns the target T2, hERG (KCNH2) K+ channel. Kind of data set: Assay index, ratio of IC50 for human ERG K+ channel expressed in HEK293 cells by patch clamp assay to IC50 for human ERG K+ channel expressed in HEK293 cells by radioligand binding assay. The class given is cell-based. As to conditions: HEK293 cells expressing human ERG K+ channel, read-out: Ratio IC50.
[5] abbreviates: HEK293 cells expressing human ERG K+ channel, probe [3H]astemizole.

Structures are written as SMILES.

T1 sequence (Q12809 whole entry): as above

`Cc1ccc(CCc2cccc(CCc3ccc(C)cc3)n2)cc1` yielded an IC50 in data set [1] (human, hek293) of more than 10000 nM. With `C[n+]1c(C#CCOc2ccccc2Cl)cccc1C#CCOc1ccccc1Cl`, the inhibition at 10 µM in data set [2] (setting [5]) was found to be 16%.

`C[n+]1c(CCCOc2ccccc2)cccc1CCCOc1ccccc1` had an IC50 in data set [1] of 208 nM. Take `c1ccc(OCc2cccc(COc3ccccc3)n2)cc1`: the inhibition at 10 µM in data set [2] (hek293) was determined as 15%. As to `C[n+]1c(COc2ccccc2)cccc1COc1ccccc1`, the half-maximal inhibitory concentration (IC50) in data set [1] is 767 nM.

As for `C(#Cc1cccc(C#Cc2ccccc2)n1)c1ccccc1`, the inhibition at 10 µM in data set [2] (setting [5]) is -11%. The compound `c1ccc(CCc2cccc(CCc3ccccc3)n2)cc1` displayed an IC50 in data set [1] of 1610 nM. This counts as single-digit micromolar. Take `c1ccc(CCc2cccc(CCc3ccccc3)c2)cc1`: the inhibition at 10 µM in data set [2] (setting [5]) was 8%.

Consider `Cc1ccc(OCCCc2cc(N)cc(CCCOc3ccc(C)cc3)n2)cc1`, for which the figures for the IC50 in data set [3] and in data set [1] were 146 nM and 170 nM, respectively. In addition, in data set [4], the selectivity ratio came out at 0.86. In the case of `Cc1ccc(Cc2cccc(COc3ccc(C)cc3)n2)cc1`, the inhibition at 10 µM in data set [2] (hek293) was found to be 9%.

`Cc1ccc(Cc2ccnc(COc3ccc(C)cc3)c2)cc1` had an IC50 in data set [1] of more than 10000 nM. Also, in data set [2] (setting [5]), the inhibition at 10 µM is -3%.

As to `Cc1ccc(COCc2cccc(COCc3ccc(C)cc3)[n+]2C)cc1`, the IC50 in data set [1] was 107 nM. With `Cc1ccc(CCOCc2cccc(COCCc3ccc(C)cc3)[n+]2C)cc1`, the IC50 in data set [1] was determined as 135 nM.

On to `Cc1ccc(CCCOCc2cccc(COCCCc3ccc(C)cc3)[n+]2C)cc1`, for which the concentration for half-maximal inhibition (IC50) in data set [3] is 194 nM; in data set [1], 24 nM. Moreover, in data set [4], the selectivity ratio stood at 8.1. In turn, `Cc1ccc(C#Cc2cccc(C#Cc3ccc(C)cc3)[n+]2C)cc1` showed an IC50 in data set [1] of 285 nM. Regarding `Cc1ccc(OCCCc2cccc(CCCOc3ccc(C)cc3)[n+]2C)cc1`, the IC50 was 962 nM in data set [3] and 86 nM in data set [1]. In addition, the selectivity ratio in data set [4] came out at 11.2.

`Cc1ccc(CCOCCCc2cccc(CCCOCCc3ccc(C)cc3)[n+]2C)cc1` displayed an IC50 in data set [1] of 371 nM. Still for that read-out and setting: then `CCCCCCC#Cc1cccc(C#CCCCCCC)[n+]1C`, with 1990 nM. Same read-out and setting: under `C[n+]1c(C#Cc2ccc(-c3ccccc3)cc2)cccc1C#Cc1ccc(-c2ccccc2)cc1` stands 294 nM. Same read-out and setting: then `C[n+]1c(C#Cc2cccc(Cl)c2)cccc1C#Cc1cccc(Cl)c1`, with 4020 nM; and `C[n+]1c(C#Cc2ccccc2Cl)cccc1C#Cc1ccccc1Cl`, with 3900 nM.

A word on the IC50: it is the concentration that gives 50% inhibition. Higher therefore signals weaker potency in that assay. Broadly, the inhibition is the change of the read-out against control, counted positive when it falls.
